Reference: article PMC12448638, “The association between diet estrogenicity in exotic felids and poor spermatozoa quality in tigers (Panthera tigris)” (Biology of Reproduction, 2025)
Like-named read-outs stand apart in the source and are kept apart here.

What was measured:
Assay in all cases: 3xERE luciferase reporter activation, HEK293
[1] = system: T1, SL ERα; assay type: cell-based, Panthera uncia; settings: agonist, 24 h, 37 °C, corrected for constitutive activity
T1 construct: gene ESR1; full-length ESR1 ORF (1788 bp, about 595 aa), codon-optimised, pcDNA3.1+, HEK293; residues S53, S76, T496, T585

[2] = system: T2, ST ERβ; assay type: cell-based, Panthera tigris sumatrae; settings: agonist, 24 h, 37 °C
T2 construct: gene ESR2; full-length ESR2 ORF (1653 bp, about 550 aa), codon-optimised, pcDNA3.1+, HEK293; residues S31, S40, V138, A147, E361, R433, E550

[3] = biological target: T3, SL ERβ (Panthera uncia, UniProt Z9GFH5XYU7); assay type: cell-based; settings: agonist; 24 h, 37 °C; normalised to β-gal and maximal E2 activation; read-out: SL ER⍺ / EC50
T3 construct: full-length ESR2 ORF (1653 bp, about 550 aa), not codon-optimised, pcDNA3.1+, HEK293; residues S31, S40, I138, A147, G361, R433, Q550

[4] = biological target: T4, ST ERα (Panthera tigris, UniProt Z9XQL7S1Y6); assay type: cell-based
T4 construct: full-length ESR1 ORF (1788 bp, about 595 aa), codon-optimised, pcDNA3.1+, HEK293; residues S53, P76, T496, S585
T4 sequence (Z9XQL7S1Y6 1-595): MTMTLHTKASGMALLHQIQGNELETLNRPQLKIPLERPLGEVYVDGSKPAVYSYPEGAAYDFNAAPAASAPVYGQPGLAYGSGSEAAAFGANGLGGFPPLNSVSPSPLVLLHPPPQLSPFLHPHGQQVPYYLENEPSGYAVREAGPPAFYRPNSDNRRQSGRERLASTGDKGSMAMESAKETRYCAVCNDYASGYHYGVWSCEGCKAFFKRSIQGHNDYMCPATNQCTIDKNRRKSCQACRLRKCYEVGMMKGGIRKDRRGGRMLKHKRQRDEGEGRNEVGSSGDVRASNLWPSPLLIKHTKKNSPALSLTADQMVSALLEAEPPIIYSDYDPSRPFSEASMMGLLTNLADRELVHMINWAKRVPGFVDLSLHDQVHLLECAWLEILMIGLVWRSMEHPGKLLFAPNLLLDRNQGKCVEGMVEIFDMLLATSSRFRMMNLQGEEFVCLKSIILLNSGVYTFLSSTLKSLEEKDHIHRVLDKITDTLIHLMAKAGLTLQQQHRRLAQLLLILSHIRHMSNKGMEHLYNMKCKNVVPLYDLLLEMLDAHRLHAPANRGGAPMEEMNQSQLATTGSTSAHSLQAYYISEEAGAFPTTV

[5] = normalised to β-gal and maximal E2 activation, read-out: SL ER⍺ / EC50
[6] = normalised to β-gal and maximal E2 activation, read-out: ST ER⍺ / EC50
[7] = normalised to β-gal, read-out: EC50

SMILES	EC50 [1, 5]	EC50 [2, 6]	EC50 [3]	EC50 ([4]; read-out: ST ER⍺ / EC50)	EC50 [1, 7]	EC50 [2, 7]	EC50 ([4]; read-out: EC50)
O=c1oc2cc(O)ccc2c2oc3cc(O)ccc3c12 [COUM, coumestrol]	41.3 nM	8.17 nM	26 nM	131 nM	–	–	–
O=c1c(-c2ccc(O)cc2)coc2cc(O)ccc12 [DAID, daidzein]	–	793 nM	–	–	–	–	–
C[C@]12CC[C@@H]3c4ccc(O)cc4CC[C@H]3[C@@H]1CC[C@@H]2O [E2, 17β-estradiol]	–	–	–	–	0.00969 nM	0.041 nM	0.00611 nM
O=c1c(-c2ccc(O)cc2)coc2cc(O)cc(O)c12 [GEN, genistein]	1670 nM	22.3 nM	291 nM	1890 nM	–	–	–
